Reference: PubChem BioAssay (NCI)
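Protocol summary: plate cells (96-well), add compound at 5 concentrations, incubate 48 h, interpolate endpoints linearly. TGI: total growth inhibition.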

Experiments:
Test in all cases: growth of human tumour cells (NCI), 48 h
A549 NSCLC = system: A549 NSCLC
EKVX NSCLC = system: EKVX NSCLC
K-562 leukemia = system: K-562 leukemia
MDA-MB-231 breast = system: MDA-MB-231 breast
NCI-H23 lung = system: NCI-H23 lung
NCI-H460 lung = system: NCI-H460 lung
RXF 393 renal = system: RXF 393 renal
SK-MEL-2 melanoma = system: SK-MEL-2 melanoma
HOP-92 NSCLC = system: HOP-92 NSCLC

SMILES | TGI (A549 NSCLC) [µM] | TGI (EKVX NSCLC) [µM] | TGI (K-562 leukemia) [µM] | TGI (MDA-MB-231 breast) [µM] | TGI (NCI-H23 lung) [µM] | TGI (NCI-H460 lung) [µM] | TGI (RXF 393 renal) [µM] | TGI (SK-MEL-2 melanoma) [µM] | TGI (HOP-92 NSCLC) [µM]
O/C(=C\c1nc2ccccc2nc1NC12CC3CC(CC(C3)C1)C2)c1ccc(Br)cc1 | > 10 | > 10 | > 10 | > 10 | > 10 | > 10 | > 10 | > 10 | 
CC(C)(C)OC(=O)n1c(-c2ccccc2F)cc(=O)c2cc3c(cc21)OCO3 | > 39.7 | > 100 | > 100 |  | > 100 | > 70.8 | > 40.3 | > 100 | > 100
c1ccc(-c2cnc(-c3ccc(-c4ncc(-c5ccccc5)o4)cc3)o2)cc1 | > 100 | > 100 | > 100 | > 100 | > 100 | > 100 | > 100 |  | > 100
CC1=CC(=O)C(C(O)(C(F)(F)F)C(F)(F)F)C(C)(C)C1 (stereo not given) | > 10 | > 10 | > 10 | > 10 | > 10 | > 10 | > 10 | > 10 | 
O=C(c1ccccc1)N1C(=S)N=C(Nc2ccccc2)C1=Nc1ccccc1 | > 100 | > 100 | > 100 | > 100 | > 100 | > 100 | > 100 | > 100 | 
Nc1nc(Nc2ccc(Cl)cc2)sc1C(=O)c1cccs1 | > 100 | 69.7 |  | > 100 | > 100 | > 100 | 42 | > 100 | > 100
CCOC(=O)C1CN(C2CC2)CCC1=O (stereo not given) | > 100 | > 100 | > 100 | > 100 | > 100 | > 100 | > 100 | > 100 | 
O=C(O)CC(NC(=O)/C(=C/c1ccccc1O)NC(=O)c1ccccc1)C(=O)O (stereo not given) | > 100 | > 100 | > 100 | > 100 | > 100 |  |  | > 100 | 
Nc1ccc2nc3n(c2c1)C(=O)c1ccccc1-3 | > 100 | > 100 | > 100 |  | > 100 | > 100 | > 100 | > 100 | > 100
